Test results published in PubChem BioAssay AID1259407 (Chemical Carcinogenesis Research Information System (CCRIS), 2018).
The source made the active and inactive calls. The rule behind the calls is not given here.

Test system: CCRIS mutagenicity, Ames/micronucleus/aberration tests
Test: CCRIS mutagenicity studies
[1] = Test System: AMES SALMONELLA TYPHIMURIUM, Strain/Indicator: TA98, Metabolic Activation: NONE, Method: PREINCUBATION
[2] = Test System: AMES SALMONELLA TYPHIMURIUM, Strain/Indicator: TA100, Metabolic Activation: NONE, Method: PREINCUBATION
[3] = Test System: AMES SALMONELLA TYPHIMURIUM, Strain/Indicator: TA98, Metabolic Activation: RAT, LIVER, S-9, AROCLOR 1254, Method: STANDARD PLATE
[4] = Test System: AMES SALMONELLA TYPHIMURIUM, Strain/Indicator: TA100, Metabolic Activation: NONE, Method: STANDARD PLATE
[5] = Test System: AMES SALMONELLA TYPHIMURIUM, Strain/Indicator: TA100, Metabolic Activation: RAT, LIVER, S-9, AROCLOR 1254, Method: STANDARD PLATE

O=C(Cl)C(Cl)c1ccccc1 (configuration not stated)
mutagenic call [1]: active; positive | mutagenic call (Test System: AMES SALMONELLA TYPHIMURIUM, Strain/Indicator: TA98, Metabolic Activation: RAT LIVER S-9, PCB, Method: PREINCUBATION): active; positive | mutagenic call [2]: active; positive | mutagenic call (Test System: AMES SALMONELLA TYPHIMURIUM, Strain/Indicator: TA100, Metabolic Activation: RAT LIVER S-9, PCB, Method: PREINCUBATION): active; positive | mutagenic call (Test System: AMES SALMONELLA TYPHIMURIUM, Strain/Indicator: TA104, Metabolic Activation: NONE, Method: PREINCUBATION): active; positive | mutagenic call (Test System: AMES SALMONELLA TYPHIMURIUM, Strain/Indicator: TA104, Metabolic Activation: RAT LIVER S-9, PCB, Method: PREINCUBATION): active; positive | mutagenic call (Test System: E.COLI, Strain/Indicator: WP2 UVRA, Metabolic Activation: NONE, Method: PREINCUBATION): active; positive | mutagenic call (Test System: E.COLI, Strain/Indicator: WP2 UVRA, Metabolic Activation: RAT LIVER S-9, PCB, Method: PREINCUBATION): active; positive

[Cl][Cr]([Cl])[Cl]
mutagenic call (End Point: IN VITRO MICRONUCLEUS, Test System: CHL/IU CELLS, Metabolic Activation: NONE): active; positive | mutagenic call (Test System: AMES SALMONELLA TYPHIMURIUM, Strain/Indicator: TA94, Metabolic Activation: NONE, Method: STANDARD PLATE): active; positive | mutagenic call (Test System: AMES SALMONELLA TYPHIMURIUM, Strain/Indicator: TA98, Metabolic Activation: HAMSTER, LIVER, S-9, AROCLOR 1254, Method: STANDARD PLATE): inactive; negative | mutagenic call [1]: inactive; negative | mutagenic call [3]: inactive; negative | mutagenic call (Test System: AMES SALMONELLA TYPHIMURIUM, Strain/Indicator: TA98, Metabolic Activation: RAT, LIVER, S-9, PHENOBARBITAL AND BETA-NAPHTHOFLAVONE, Method: PREINCUBATION): inactive; negative | mutagenic call (Test System: AMES SALMONELLA TYPHIMURIUM, Strain/Indicator: TA100, Metabolic Activation: HAMSTER, LIVER, S-9, AROCLOR 1254, Method: STANDARD PLATE): inactive; negative | mutagenic call [2]: inactive; negative | mutagenic call [4]: inactive; negative | mutagenic call [5]: inactive; negative | mutagenic call (Test System: AMES SALMONELLA TYPHIMURIUM, Strain/Indicator: TA100, Metabolic Activation: RAT, LIVER, S-9, PHENOBARBITAL AND BETA-NAPHTHOFLAVONE, Method: PREINCUBATION): inactive; negative | mutagenic call (Test System: AMES SALMONELLA TYPHIMURIUM, Strain/Indicator: TA102, Metabolic Activation: HAMSTER, LIVER, S-9, AROCLOR 1254, Method: STANDARD PLATE): active; positive | mutagenic call (Test System: AMES SALMONELLA TYPHIMURIUM, Strain/Indicator: TA102, Metabolic Activation: RAT, LIVER, S-9, AROCLOR 1254, Method: STANDARD PLATE): active; positive | mutagenic call (Test System: AMES SALMONELLA TYPHIMURIUM, Strain/Indicator: TA1535, Metabolic Activation: HAMSTER, LIVER, S-9, AROCLOR 1254, Method: STANDARD PLATE): inactive; negative | mutagenic call (Test System: AMES SALMONELLA TYPHIMURIUM, Strain/Indicator: TA1535, Metabolic Activation: NONE, Method: PREINCUBATION): inactive; negative | mutagenic call (Test System: AMES SALMONELLA TYPHIMURIUM, Strain/Indicator: TA1535, Metabolic Activation: NONE, Method: STANDARD PLATE): inactive; negative | mutagenic call (Test System: AMES SALMONELLA TYPHIMURIUM, Strain/Indicator: TA1535, Metabolic Activation: RAT, LIVER, S-9, AROCLOR 1254, Method: STANDARD PLATE): inactive; negative | mutagenic call (Test System: AMES SALMONELLA TYPHIMURIUM, Strain/Indicator: TA1535, Metabolic Activation: RAT, LIVER, S-9, PHENOBARBITAL AND BETA-NAPHTHOFLAVONE, Method: PREINCUBATION): inactive; negative | mutagenic call (Test System: AMES SALMONELLA TYPHIMURIUM, Strain/Indicator: TA1537, Metabolic Activation: HAMSTER, LIVER, S-9, AROCLOR 1254, Method: STANDARD PLATE): inactive; negative | mutagenic call (Test System: AMES SALMONELLA TYPHIMURIUM, Strain/Indicator: TA1537, Metabolic Activation: NONE, Method: PREINCUBATION): inactive; negative | mutagenic call (Test System: AMES SALMONELLA TYPHIMURIUM, Strain/Indicator: TA1537, Metabolic Activation: NONE, Method: STANDARD PLATE): inactive; negative | mutagenic call (Test System: AMES SALMONELLA TYPHIMURIUM, Strain/Indicator: TA1537, Metabolic Activation: RAT, LIVER, S-9, AROCLOR 1254, Method: STANDARD PLATE): inactive; negative | mutagenic call (Test System: AMES SALMONELLA TYPHIMURIUM, Strain/Indicator: TA1537, Metabolic Activation: RAT, LIVER, S-9, PHENOBARBITAL AND BETA-NAPHTHOFLAVONE, Method: PREINCUBATION): inactive; negative | mutagenic call (Test System: AMES SALMONELLA TYPHIMURIUM, Strain/Indicator: TA1538, Metabolic Activation: NONE, Method: PREINCUBATION): inactive; negative | mutagenic call (Test System: AMES SALMONELLA TYPHIMURIUM, Strain/Indicator: TA1538, Metabolic Activation: RAT, LIVER, S-9, PHENOBARBITAL AND BETA-NAPHTHOFLAVONE, Method: PREINCUBATION): inactive; negative | mutagenic call (Test System: CHINESE HAMSTER OVARY CELLS, Strain/Indicator: CHO CELLS (HPRT)/6-THIOGUANINE, Metabolic Activation: NONE, Method: STANDARD PLATE): active; positive | mutagenic call (Test System: E. COLI, Strain/Indicator: WP2 UVRA, Metabolic Activation: NONE, Method: SPOT TEST): inactive; negative | mutagenic call (Test System: E. COLI, Strain/Indicator: WP2UVRA, Metabolic Activation: RAT LIVER S-9, PHENOBARBITAL AND BETA-NAPHTHOFLAVONE, Method: PREINCUBATION): inactive; negative | mutagenic call (Test System: E.COLI, Strain/Indicator: WP2UVRA, Metabolic Activation: NONE, Method: PREINCUBATION): inactive; negative | mutagenic call (Test System: Mouse lymphoma, Strain/Indicator: L5178Y (tk+/tk-), Metabolic Activation: None, Method: Suspension/plate): inactive; negative | mutagenic call (Test System: Mouse lymphoma, Strain/Indicator: L5178Y (tk+/tk-), Metabolic Activation: Rat, Liver, S-9, Aroclor 1254, Method: Suspension/plate): active; equivocal (previous evaluation positive)

CC(O)/C(=C(\c1ccccc1)c1ccc(OCCN(C)C)cc1)c1ccccc1 (configuration not stated)
mutagenic call (Test System: CHINESE HAMSTER V-79, Strain/Indicator: V79HHST (HPRT)/6-THIOGUANINE, Metabolic Activation: NONE): inactive; negative | mutagenic call (Test System: CHINESE HAMSTER V-79, Strain/Indicator: V79RHST (HPRT)/6-THIOGUANINE, Metabolic Activation: NONE): active; positive

O=c1ccn([C@@H]2O[C@H](COP(=O)(O)O)[C@@H](O)[C@H]2O)c(=O)[nH]1
mutagenic call (Test System: AMES SALMONELLA TYPHIMURIUM, Strain/Indicator: TA97, Metabolic Activation: NONE, Method: PREINCUBATION): inactive; negative | mutagenic call (Test System: AMES SALMONELLA TYPHIMURIUM, Strain/Indicator: TA97, Metabolic Activation: RAT, LIVER, S-9, AROCLOR 1254, Method: PREINCUBATION): inactive; negative | mutagenic call (Test System: AMES SALMONELLA TYPHIMURIUM, Strain/Indicator: TA102, Metabolic Activation: NONE, Method: PREINCUBATION): inactive; negative | mutagenic call (Test System: AMES SALMONELLA TYPHIMURIUM, Strain/Indicator: TA102, Metabolic Activation: RAT, LIVER, S-9, AROCLOR 1254, Method: PREINCUBATION): inactive; negative

Cc1cc(C)c2ccc3ccccc3c2c1
mutagenic call (Test System: AMES SALMONELLA TYPHIMURIUM, Strain/Indicator: TA98, Metabolic Activation: NONE, Method: STANDARD PLATE): inactive; negative | mutagenic call [3]: active; positive | mutagenic call [4]: inactive; negative | mutagenic call [5]: active; positive

CCC(=O)N(O)c1ccc(-c2ccccc2)cc1
mutagenic call [1]: inactive; negative | mutagenic call (Test System: AMES SALMONELLA TYPHIMURIUM, Strain/Indicator: TA98, Metabolic Activation: RAT, LIVER, CYTOSOL, Method: PREINCUBATION): inactive; negative | mutagenic call (Test System: AMES SALMONELLA TYPHIMURIUM, Strain/Indicator: TA98, Metabolic Activation: RAT, LIVER, MICROSOMES, Method: PREINCUBATION): active; positive
